No end group written: not given here.
Tests used:
[1] = system: β-galactosidase expressing CMV; experiment: CMV entry assay in RPE cells; assay type: cell-based, cytomegalovirus; details: 0.5 mM, 60 min pre-treatment, 8 h, ONPG and X-gal
Method: Natural target RPE cells were incubated with G1 and G2 peptides for 60 min at room temperature before the cells were infected with β-galactosidase expressing CMV (ATCC) for 8 h. β-galactosidase assays were performed using either a soluble substrate o-nitrophenyl-β-D-galactopyranoside (ONPG at 3.0 mg/ml; ImmunoPure, Pierce) or X-gal (Sigma).
In order to detect each peptide's effect on viral entry, Lac Z-expressing reporter CMV and GFP-expressing HHV-8 viruses (Viera et al., J. Virol. 72:5182-5188 (2000)) and their natural target cells were employed for entry measurements. […] A monolayer of cultured RPE cells grown in a 96 well plate were pre-treated with G1, G2, or control peptide (Cp) at 0.5 mM concentration (FIG. 5A). A mock-treated population of RPE cells served as positive control (abbreviated as C). After 60 min of incubation at room temperature, the cells were infected with β-galactosidase expressing CMV reporter virus. After 8 h, viral entry was measured as described for FIG. 1.
The effect of CMV entry blocking activity of G1, G2 or Cp peptide for individual RPE cells was determined by X-gal staining, which yields an insoluble blue product upon hydrolysis by β-galactosidase (FIG. 5B). Individual cells were examined using a Zeiss Axiovert 100 microscope at 20× magnification. Infected cells turn blue. […]

[2] = system: HSV-1(K26GFP); experiment: HSV-1(K26GFP) replication in human CF (GFP fluorescence over time); assay type: cell-based, herpes simplex virus type-1; details: 0-36 h post-infection (FIG. 6D)
Method: GFP-expressing HSV-1(K26GFP) intensity as a surrogate for virus binding was quantified in presence G2 or control peptide (abbreviated as C) by flow cytometry (FIG. 6C). The cell/virus incubation was performed as described above. G2 peptides block HSV-1 replication into cultured human corneal fibroblasts (CF) (FIG. 6D). Cultured CF were pre-incubated with G2 or mock-treated (Cp) before infection with HSV-1(K26GFP) virus for 6 h. Viral replications in CF were quantified 0-36 h post-infection by measuring GFP fluorescent intensity using a fluorescence reader (Tecan). The data shown are the means of triplicate measures and are representative of three independent experiments. Asterisks indicate significant difference from other treatments (P<0.01, t test), error bars represent standard deviation (SD).
To further confirm that blocking of viral attachment results in a reduction of viral replication, GFP fluorescence was measured as a function of time (K26GFP) (Desai and Person J. Virol. 72:7563-7568 (1998)) in both G2- and mock-treated cells.

[3] = system: HSV-1 glycoproteins (gB, gD, gH-gL) induced membrane fusion; experiment: HSV-1 glycoprotein induced cell-to-cell fusion assay, 3-OST-3-expressing CHO-K1 target cells; assay type: cell-based, herpes simplex virus type-1
Source text: CHO-K1 “effector” cells (grown in F-12 Ham, Invitrogen) were co-transfected with plasmids expressing four HSV-1(KOS) glycoproteins: pPEP98 (gB), pPEP99 (gD), pPEP100 (gH), and pPEP101 (gL), along with the plasmid pT7EMCLuc that expresses firefly luciferase gene under transcriptional control of the T7 promoter. Pertel et al., Virology 279:313-324 (2001). Wild-type CHO-K1 cells, which express cell-surface HS but lack functional gD receptors, were transiently transfected with HSV-1 entry receptors. Wild-type CHO-K1 cultured cells expressing HSV-1 entry receptors or naturally susceptible cells (human CF) considered as “target cells” were co-transfected with pCAGT7 that expresses T7 RNA polymerase using chicken actin promoter and CMV enhancer. Tiwari et al., FEBS Letters 581:4468-4472 (2007). Untreated effector cells expressing pT7EMCLuc and HSV-1 essential glycoproteins, and target cells expressing gD receptors transfected with T7 RNA polymerase, were used as positive controls. […]
Control effector cells (T7 polymerase and gD, gH-gL only) (−) were also pre-incubated with G2 for the same duration. […] Membrane fusion as a surrogate for viral spread was detected by monitoring luciferase activity (FIGS. 7A and 7C). Relative luciferase units (RLUs) were determined using a Sirius luminometer (Berthold detection systems). […]

| Sequence | blocking of CMV entry [1] | viral replication (GFP intensity over time) [2] | blocking of membrane fusion (luciferase activity) ([3]; 3-OST-3-expressing CHO-K1 cells (FIG. 7C)) | syncytia (polykaryocyte) formation, Giemsa staining ([3]; 3-OST-3-expressing CHO-K1 cells (FIG. 7D)) |
| --- | --- | --- | --- | --- |
| LRSRTKIIRIRH [G1, LRSRTKIIRIRH] | no effect on viral entry | – | – | – |
| MPRRRRIRRRQK [G2, MPRRRRIRRRQK] | effective in blocking CMV entry | substantial reduction of viral replication | very effective in blocking membrane fusion | loss of syncytia formation |
